Assay results from publication PMC6704710, “Preclinical evaluation of 3D185, a novel potent inhibitor of FGFR1/2/3 and CSF-1R, in FGFR-dependent and macrophage-dominant cancer models” (Journal of Experimental & Clinical Cancer Research : CR, 2019).

Experiments:
Experiment in all cases: Eurofins kinase panel
Assay type in all cases: biochemical
Conditions in all cases: read-out: Inhibition rate (%)
[1] = target: T1, CaMKIγ(h) (Homo sapiens, UniProt Q96NX5)
T1 construct: purchased Eurofins (KinaseProfiler)

[2] = target: T2, CaMKIδ(h) (Homo sapiens, UniProt Q8IU85)
T2 construct: purchased Eurofins (KinaseProfiler)

[3] = target: T3, PIP5K1α(h) (Homo sapiens, UniProt Q99755)
T3 construct: purchased Eurofins (KinaseProfiler)

[4] = target: T4, PKCε(h) (Homo sapiens, UniProt Q02156)
T4 construct: purchased Eurofins (KinaseProfiler)
T4 sequence (Q02156 1-737): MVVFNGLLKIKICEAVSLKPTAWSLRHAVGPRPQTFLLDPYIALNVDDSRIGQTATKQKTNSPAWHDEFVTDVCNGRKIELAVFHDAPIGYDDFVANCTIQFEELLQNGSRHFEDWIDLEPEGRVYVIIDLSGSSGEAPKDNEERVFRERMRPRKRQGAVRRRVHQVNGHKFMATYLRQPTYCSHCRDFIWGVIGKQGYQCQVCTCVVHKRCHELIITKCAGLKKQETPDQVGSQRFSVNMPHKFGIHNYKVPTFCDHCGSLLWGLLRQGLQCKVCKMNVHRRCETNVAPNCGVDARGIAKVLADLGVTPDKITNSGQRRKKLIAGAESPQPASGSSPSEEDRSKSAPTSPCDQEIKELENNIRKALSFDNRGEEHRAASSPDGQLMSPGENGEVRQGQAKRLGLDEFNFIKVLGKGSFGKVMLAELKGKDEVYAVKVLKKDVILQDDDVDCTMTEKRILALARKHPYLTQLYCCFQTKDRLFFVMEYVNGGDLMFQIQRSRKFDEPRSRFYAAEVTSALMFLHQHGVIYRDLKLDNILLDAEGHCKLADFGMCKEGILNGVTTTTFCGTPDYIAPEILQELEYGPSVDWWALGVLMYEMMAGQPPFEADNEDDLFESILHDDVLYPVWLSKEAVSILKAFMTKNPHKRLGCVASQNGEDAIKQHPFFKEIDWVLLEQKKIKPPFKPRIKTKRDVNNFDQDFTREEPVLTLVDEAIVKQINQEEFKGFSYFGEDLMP

[5] = target: T5, Lck(h) activated (Homo sapiens, UniProt P06239)
T5 construct: purchased Eurofins (KinaseProfiler)

[6] = target: T6, PEK(h) (Homo sapiens, UniProt Q9NZJ5)
T6 construct: purchased Eurofins (KinaseProfiler)
T6 sequence (Q9NZJ5 30-1116): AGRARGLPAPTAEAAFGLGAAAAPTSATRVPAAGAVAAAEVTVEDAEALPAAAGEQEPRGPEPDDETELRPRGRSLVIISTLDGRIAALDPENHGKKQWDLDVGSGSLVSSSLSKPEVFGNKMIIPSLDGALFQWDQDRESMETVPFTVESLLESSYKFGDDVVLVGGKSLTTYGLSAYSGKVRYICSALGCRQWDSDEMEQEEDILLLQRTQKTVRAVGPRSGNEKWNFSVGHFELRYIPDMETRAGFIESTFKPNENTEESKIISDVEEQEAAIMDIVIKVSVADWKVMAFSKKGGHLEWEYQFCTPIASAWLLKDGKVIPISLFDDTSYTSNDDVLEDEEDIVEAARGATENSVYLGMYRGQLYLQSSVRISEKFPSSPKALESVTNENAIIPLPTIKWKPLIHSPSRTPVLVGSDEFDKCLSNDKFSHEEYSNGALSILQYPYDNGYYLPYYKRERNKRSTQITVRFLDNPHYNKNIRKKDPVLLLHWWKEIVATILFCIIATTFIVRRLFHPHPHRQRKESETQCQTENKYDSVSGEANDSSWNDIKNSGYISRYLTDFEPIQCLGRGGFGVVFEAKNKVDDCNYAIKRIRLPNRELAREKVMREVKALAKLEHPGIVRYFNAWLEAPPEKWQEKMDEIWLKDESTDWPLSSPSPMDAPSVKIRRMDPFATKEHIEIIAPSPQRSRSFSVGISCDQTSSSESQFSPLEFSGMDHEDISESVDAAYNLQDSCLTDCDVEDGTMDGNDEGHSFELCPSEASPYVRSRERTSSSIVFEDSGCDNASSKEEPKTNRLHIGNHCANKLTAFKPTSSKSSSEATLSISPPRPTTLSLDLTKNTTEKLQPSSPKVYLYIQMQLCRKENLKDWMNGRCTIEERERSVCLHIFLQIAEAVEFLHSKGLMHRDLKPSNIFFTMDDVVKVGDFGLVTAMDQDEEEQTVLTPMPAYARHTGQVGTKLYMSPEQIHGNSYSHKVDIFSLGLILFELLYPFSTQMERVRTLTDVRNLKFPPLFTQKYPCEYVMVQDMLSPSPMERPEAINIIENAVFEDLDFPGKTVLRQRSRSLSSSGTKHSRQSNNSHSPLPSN

[7] = target: T7, p70S6K(h) (Homo sapiens, UniProt P23443)
T7 construct: purchased Eurofins (KinaseProfiler)

[8] = target: T8, CaMKIIδ(h) (Homo sapiens, UniProt Q13557)
T8 construct: purchased Eurofins (KinaseProfiler)

[9] = target: T9, ErbB2(h) (Homo sapiens, UniProt P04626)
T9 construct: purchased Eurofins (KinaseProfiler)

[10] = target: T10, DDR1(h) (Homo sapiens, UniProt Q08345)
T10 construct: purchased Eurofins (KinaseProfiler)

[11] = target: T11, CaMKK2(h) (Homo sapiens, UniProt Q96RR4)
T11 construct: purchased Eurofins (KinaseProfiler)
T11 sequence (Q96RR4 whole entry): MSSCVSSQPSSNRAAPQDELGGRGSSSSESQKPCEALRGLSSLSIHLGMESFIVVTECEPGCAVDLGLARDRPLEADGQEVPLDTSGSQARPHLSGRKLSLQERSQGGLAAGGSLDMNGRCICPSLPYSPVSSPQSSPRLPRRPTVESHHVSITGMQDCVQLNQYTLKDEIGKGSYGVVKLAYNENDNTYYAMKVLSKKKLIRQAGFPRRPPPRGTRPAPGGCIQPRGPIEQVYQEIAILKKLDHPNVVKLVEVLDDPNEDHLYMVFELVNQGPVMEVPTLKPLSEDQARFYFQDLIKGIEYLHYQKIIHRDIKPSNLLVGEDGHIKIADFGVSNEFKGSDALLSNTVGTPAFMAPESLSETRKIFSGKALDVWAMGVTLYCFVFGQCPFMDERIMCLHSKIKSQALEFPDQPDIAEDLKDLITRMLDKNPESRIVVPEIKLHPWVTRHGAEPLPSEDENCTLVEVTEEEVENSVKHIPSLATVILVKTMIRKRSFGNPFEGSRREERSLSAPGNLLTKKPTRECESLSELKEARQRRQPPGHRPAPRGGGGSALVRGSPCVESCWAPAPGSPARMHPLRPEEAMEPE

T8 sequence (Q13557 whole entry): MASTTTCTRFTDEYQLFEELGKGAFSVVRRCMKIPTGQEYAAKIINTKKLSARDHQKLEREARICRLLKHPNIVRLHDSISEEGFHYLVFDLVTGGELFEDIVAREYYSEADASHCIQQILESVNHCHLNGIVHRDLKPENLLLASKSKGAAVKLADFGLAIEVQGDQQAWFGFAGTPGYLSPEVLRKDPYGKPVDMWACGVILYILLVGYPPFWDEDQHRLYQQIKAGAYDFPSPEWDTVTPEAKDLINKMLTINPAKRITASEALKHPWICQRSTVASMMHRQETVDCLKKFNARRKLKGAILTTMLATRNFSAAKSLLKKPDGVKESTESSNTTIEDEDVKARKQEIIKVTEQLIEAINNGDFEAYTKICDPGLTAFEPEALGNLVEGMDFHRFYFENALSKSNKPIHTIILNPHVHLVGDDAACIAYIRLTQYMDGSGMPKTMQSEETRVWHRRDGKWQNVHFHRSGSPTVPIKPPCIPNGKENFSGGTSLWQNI
T1 sequence (Q96NX5 whole entry): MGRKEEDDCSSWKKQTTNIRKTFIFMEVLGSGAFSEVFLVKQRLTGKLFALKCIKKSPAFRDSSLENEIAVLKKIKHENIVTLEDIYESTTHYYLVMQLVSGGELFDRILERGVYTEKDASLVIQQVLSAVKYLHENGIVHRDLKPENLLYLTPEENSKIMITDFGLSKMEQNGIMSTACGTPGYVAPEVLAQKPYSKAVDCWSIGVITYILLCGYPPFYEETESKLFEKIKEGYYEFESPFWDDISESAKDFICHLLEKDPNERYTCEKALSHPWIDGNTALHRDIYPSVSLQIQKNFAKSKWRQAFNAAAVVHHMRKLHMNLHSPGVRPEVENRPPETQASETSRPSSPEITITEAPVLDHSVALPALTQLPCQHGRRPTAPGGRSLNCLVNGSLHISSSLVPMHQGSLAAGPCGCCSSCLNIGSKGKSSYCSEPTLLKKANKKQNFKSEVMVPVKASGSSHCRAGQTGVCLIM
T9 sequence (P04626 23-1255): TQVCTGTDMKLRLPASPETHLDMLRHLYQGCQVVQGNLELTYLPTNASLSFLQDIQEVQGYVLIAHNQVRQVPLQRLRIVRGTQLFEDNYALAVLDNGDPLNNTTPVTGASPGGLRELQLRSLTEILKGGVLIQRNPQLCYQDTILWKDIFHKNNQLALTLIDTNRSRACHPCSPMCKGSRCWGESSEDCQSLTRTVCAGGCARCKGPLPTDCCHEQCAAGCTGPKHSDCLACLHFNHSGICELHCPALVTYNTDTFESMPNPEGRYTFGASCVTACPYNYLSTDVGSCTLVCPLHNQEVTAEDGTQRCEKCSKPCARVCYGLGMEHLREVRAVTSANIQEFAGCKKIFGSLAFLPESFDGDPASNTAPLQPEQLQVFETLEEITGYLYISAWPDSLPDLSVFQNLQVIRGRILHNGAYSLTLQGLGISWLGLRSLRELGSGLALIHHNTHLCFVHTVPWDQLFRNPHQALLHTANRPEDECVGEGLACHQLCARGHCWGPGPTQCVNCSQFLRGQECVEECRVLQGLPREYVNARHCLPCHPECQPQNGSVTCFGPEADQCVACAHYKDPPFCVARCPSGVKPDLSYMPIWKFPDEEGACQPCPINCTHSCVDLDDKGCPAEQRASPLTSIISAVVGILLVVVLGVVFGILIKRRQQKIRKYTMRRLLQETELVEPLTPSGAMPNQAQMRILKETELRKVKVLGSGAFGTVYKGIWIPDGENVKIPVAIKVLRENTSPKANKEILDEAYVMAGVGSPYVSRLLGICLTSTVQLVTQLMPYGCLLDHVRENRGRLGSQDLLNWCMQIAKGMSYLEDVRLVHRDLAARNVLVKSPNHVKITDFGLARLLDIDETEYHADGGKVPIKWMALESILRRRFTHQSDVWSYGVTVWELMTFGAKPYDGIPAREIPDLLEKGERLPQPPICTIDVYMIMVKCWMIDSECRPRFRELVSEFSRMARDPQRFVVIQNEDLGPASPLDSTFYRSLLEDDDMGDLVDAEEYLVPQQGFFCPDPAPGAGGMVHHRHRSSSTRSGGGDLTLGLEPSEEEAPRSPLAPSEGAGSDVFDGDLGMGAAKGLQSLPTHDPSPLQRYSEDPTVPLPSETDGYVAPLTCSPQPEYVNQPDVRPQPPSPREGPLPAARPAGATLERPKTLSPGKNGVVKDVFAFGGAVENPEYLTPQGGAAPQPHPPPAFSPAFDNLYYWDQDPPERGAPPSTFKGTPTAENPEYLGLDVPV
T5 sequence (P06239 whole entry): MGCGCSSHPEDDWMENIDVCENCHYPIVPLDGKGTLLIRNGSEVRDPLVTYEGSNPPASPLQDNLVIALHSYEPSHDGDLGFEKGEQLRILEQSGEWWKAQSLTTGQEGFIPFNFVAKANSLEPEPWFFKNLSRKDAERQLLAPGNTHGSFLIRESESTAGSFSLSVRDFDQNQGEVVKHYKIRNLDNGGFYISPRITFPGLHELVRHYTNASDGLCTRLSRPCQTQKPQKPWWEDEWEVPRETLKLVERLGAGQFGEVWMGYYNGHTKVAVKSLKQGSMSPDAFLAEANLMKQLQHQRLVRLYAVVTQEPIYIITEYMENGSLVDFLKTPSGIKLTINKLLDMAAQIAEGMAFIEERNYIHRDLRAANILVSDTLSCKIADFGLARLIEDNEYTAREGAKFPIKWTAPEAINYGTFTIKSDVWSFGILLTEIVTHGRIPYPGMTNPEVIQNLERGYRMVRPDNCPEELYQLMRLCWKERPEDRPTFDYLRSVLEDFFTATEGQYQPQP
T2 sequence (Q8IU85 whole entry): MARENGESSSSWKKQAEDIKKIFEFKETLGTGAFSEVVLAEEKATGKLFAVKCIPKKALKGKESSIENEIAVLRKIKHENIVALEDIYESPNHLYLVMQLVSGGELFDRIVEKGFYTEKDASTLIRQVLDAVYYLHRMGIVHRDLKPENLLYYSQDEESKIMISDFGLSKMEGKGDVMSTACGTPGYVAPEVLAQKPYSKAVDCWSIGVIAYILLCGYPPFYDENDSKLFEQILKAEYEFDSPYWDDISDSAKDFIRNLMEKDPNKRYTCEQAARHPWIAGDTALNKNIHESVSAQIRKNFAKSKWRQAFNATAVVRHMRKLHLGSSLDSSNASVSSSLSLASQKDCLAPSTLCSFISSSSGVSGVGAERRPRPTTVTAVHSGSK
T7 sequence (P23443 whole entry): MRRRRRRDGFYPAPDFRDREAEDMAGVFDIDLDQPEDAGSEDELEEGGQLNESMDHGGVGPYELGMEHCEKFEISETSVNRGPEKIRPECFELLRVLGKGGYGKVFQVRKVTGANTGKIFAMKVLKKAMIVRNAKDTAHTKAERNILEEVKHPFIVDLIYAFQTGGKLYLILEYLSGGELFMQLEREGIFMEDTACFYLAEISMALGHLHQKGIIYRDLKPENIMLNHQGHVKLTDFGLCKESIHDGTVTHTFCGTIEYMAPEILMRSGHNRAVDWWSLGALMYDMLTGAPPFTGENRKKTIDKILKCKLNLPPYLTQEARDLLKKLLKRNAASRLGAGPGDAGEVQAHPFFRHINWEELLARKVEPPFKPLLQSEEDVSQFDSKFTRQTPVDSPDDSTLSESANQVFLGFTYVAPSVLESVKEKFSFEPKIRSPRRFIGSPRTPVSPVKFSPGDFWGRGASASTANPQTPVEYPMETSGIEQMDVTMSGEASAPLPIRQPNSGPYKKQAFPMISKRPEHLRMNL
T3 sequence (Q99755 whole entry): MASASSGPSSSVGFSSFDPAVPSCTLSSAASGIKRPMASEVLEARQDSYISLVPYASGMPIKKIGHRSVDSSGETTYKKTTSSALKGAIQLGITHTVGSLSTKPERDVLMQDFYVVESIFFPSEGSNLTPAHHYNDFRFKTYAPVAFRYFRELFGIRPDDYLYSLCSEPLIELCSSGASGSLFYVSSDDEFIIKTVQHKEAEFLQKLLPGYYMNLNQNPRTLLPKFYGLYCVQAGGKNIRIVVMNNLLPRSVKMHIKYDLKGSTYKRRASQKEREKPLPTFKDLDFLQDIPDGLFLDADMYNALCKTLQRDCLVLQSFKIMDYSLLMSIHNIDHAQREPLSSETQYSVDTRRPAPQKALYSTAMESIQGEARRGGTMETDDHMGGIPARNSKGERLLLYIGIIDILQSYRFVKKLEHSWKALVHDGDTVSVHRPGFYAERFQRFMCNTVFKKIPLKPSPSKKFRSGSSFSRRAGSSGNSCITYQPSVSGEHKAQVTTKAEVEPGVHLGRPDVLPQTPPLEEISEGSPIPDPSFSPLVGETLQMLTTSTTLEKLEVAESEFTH

**Q.** Which results are given for COc1cc(OC)c(Cl)c(-c2ccc3c(NC(=O)c4ccc(N5CCNC(C)(C)C5)cc4)n[nH]c3n2)c1Cl [3D185]?
**A.** inhibition at 0.01 µM ([1]; 10 nM): -1%; inhibition at 0.1 µM ([1]; 100 nM): 3%; inhibition at 1 µM ([1]; 1000 nM): 41%; inhibition at 0.01 µM ([2]; 10 nM): 0%; inhibition at 0.1 µM ([2]; 100 nM): 23%; inhibition at 1 µM ([2]; 1000 nM): 76%; inhibition at 0.01 µM ([3]; 10 nM): -1%; inhibition at 0.1 µM ([3]; 100 nM): -4%; inhibition at 1 µM ([3]; 1000 nM): -9%; inhibition at 0.01 µM ([4]; 10 nM): -4%; inhibition at 0.1 µM ([4]; 100 nM): -10%; inhibition at 1 µM ([4]; 1000 nM): -6%; inhibition at 0.01 µM ([5]; 10 nM): 16%; inhibition at 0.1 µM ([5]; 100 nM): 59%; inhibition at 1 µM ([5]; 1000 nM): 92%; inhibition at 0.01 µM ([6]; 10 nM): -7%; inhibition at 0.1 µM ([6]; 100 nM): 6%; inhibition at 1 µM ([6]; 1000 nM): 55%; inhibition at 0.01 µM ([7]; 10 nM): -4%; inhibition at 0.1 µM ([7]; 100 nM): -9%; inhibition at 1 µM ([7]; 1000 nM): -1%; inhibition at 0.01 µM ([8]; 10 nM): -1%; inhibition at 0.1 µM ([8]; 100 nM): -3%; inhibition at 1 µM ([8]; 1000 nM): -3%; inhibition at 0.01 µM ([9]; 10 nM): -7%; inhibition at 0.1 µM ([9]; 100 nM): -11%; inhibition at 1 µM ([9]; 1000 nM): -11%; inhibition at 0.01 µM ([10]; 10 nM): 6%; inhibition at 0.1 µM ([10]; 100 nM): 27%; inhibition at 1 µM ([10]; 1000 nM): 64%; inhibition at 0.01 µM ([11]; 10 nM): -4%; inhibition at 0.1 µM ([11]; 100 nM): -22%; inhibition at 1 µM ([11]; 1000 nM): 4%
